The NIST ThermoML archive (doi:10.1021/je2008445)
± gives the expanded uncertainty stated by the source.

What was measured:
[1] = Liquid, Ebulliometric method (Recirculating still)
[2] = refractive index (Na D-line) (dimensionless); conditions: 298.15 K; 101.33 kPa; Liquid; Standard Abbe refractometry

With `CCOC(C)=O` [ethyl acetate] the “vapor or sublimation pressure” value ([1]; 350.23 K) was 101.33 ± 1.6 kPa and the refractive index [2] was 1.3712 ± 0.0005.

With `C[Si](C)(C)O[Si](C)(C)C` [hexamethyldisiloxane] the “vapor or sublimation pressure” value ([1]; 372.73 K) was 101.33 ± 1.6 kPa and the refractive index [2] was 1.3737 ± 0.0005.
